From patent publication US7427612B2, “Benzoyl-piperazine derivatives” (Hoffmann-La Roche Inc., priority 2003, dated 2008)

Target: T1, mGlyT-1b (Mus musculus, UniProt P28571)
T1 construct: host or cells: Flp-in CHO cells, stably transfected
T1 sequence (P28571 1-651 isoform P28571-2): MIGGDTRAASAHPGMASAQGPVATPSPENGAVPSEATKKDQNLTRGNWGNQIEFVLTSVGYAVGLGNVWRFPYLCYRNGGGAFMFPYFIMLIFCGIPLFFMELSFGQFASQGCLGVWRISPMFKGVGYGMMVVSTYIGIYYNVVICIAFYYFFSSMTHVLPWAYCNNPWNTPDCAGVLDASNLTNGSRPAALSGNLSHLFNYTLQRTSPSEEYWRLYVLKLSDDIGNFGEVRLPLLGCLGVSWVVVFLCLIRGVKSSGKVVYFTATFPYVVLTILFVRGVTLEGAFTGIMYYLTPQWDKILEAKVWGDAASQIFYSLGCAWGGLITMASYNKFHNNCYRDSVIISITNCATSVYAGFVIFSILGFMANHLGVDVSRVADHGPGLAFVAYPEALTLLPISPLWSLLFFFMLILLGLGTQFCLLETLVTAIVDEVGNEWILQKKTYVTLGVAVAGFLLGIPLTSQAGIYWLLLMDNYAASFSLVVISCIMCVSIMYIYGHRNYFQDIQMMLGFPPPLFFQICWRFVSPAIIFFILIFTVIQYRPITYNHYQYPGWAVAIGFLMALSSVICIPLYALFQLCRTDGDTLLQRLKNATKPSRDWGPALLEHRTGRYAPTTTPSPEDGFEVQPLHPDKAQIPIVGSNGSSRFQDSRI
Experiment: Glycine uptake inhibition assay (mGlyT-1b)
Type: cell-based
Settings: inhibition of [3H]-glycine uptake in Flp-in-CHO cells stably transfected with mGlyT1b cDNA; 20 min at 22° C.
Experimental: DMEM complete medium: Nutrient mixture F-12 (Gibco Life-technologies), fetal bovine serum (FBS) 5%, (Gibco life technologies), Penicillin/Streptomycin 1% (Gibco life technologies), Hygromycin 0.6 mg/ml (Gibco life technologies), Glutamine 1 mM Gibco life technologies)
Uptake buffer (UB): 150 mM NaCl, 10 mM Hepes-Tris, pH 7.4, 1 mM CaCl2, 2.5 mM KCl, 2.5 mM MgSO4, 10 mM (+) D-glucose. Flp-in™—CHO (Invitrogen Cat n° R758-07)cells stably transfected with mGlyT1b cDNA.
Glycine uptake inhibition assay (mGlyT-1b)
On Day 1 mammallian cells, (Flp-in™—CHO), transfected with mGlyT-1b cDNA, were plated at the density of 40,000 cells/well in complete F-12 medium, without hygromycin in 96-well culture plates. On day 2, the medium was aspirated and the cells were washed twice with uptake buffer (UB). The cells were then incubated for 20 min at 22° C. with either (i) no potential competitor, (ii) 10 mM non-radioactive glycine, (iii) a concentration of a potential inhibitor. A range of concentrations of the potential inhibitor was used to generate data for calculating the concentration of inhibitor resulting in 50% of the effect (e.g. IC50, the concentration of the competitor inhibiting glycine uptake of 50%). A solution was then immediately added containing [^3H]-glycine 60 nM (11-16 Ci/mmol) and 25 μM non-radioactive glycine. The plates were incubated with gentle shaking and the reaction was stopped by aspiration of the mixture and washing (three times) with ice-cold UB. The cells were lysed with scintillation liquid, shaken 3 hours and the radioactivity in the cells was counted using a scintillation counter.

With `CC(=O)c1ccc(N2CCN(C(=O)c3cc([N+](=O)[O-])ccc3NC(C)C)CC2)c(F)c1` [Example 18, 1-{3-Fluoro-4-[4-(2-isopropylamino-5-nitro-benzoyl)-piperazin-1-yl]-phenyl}-ethanone] the IC50 was 2.5 nM.

In the case of `CC(=O)c1ccc(N2CCN(C(=O)c3cc([N+](=O)[O-])ccc3N3CCSCC3)CC2)c(F)c1` [Example 42, 1-{3-Fluoro-4-[4-(5-nitro-2-thiomorpholin-4-yl-benzoyl)-piperazin-1-yl]-phenyl}-ethanone], the IC50 is reported as 3.5 nM.

For `CS(=O)(=O)c1ccc(N2CCCCC2)c(C(=O)N2CCN(c3ccc(C#N)cc3F)CC2)c1` [Example 216, 3-Fluoro-4-[4-(5-methanesulfonyl-2-piperidin-1-yl-benzoyl)-piperazin-1-yl]-benzonitrile], the IC50 was 12 nM.

`CS(=O)(=O)c1ccc(N2CCCCC2)c(C(=O)N2CCN(c3ccc(C(F)(F)F)cc3F)CC2)c1` [Example 219, [4-(2-Fluoro-4-trifluoromethyl-phenyl)piperazin-1-yl]-(5-methanesulfonyl-2-piperidin-1-yl-phenyl)-methanone] gave an IC50 of 17 nM.

`CC(=O)c1ccc(N2CCN(C(=O)c3cc([N+](=O)[O-])ccc3N3CCOCC3)CC2)c(F)c1` [Example 1, 1-{4-[4-(2-Morpholin-4-yl-5-nitro-benzoyl)-piperazin-1-yl]-3-fluoro-phenyl}-ethanone] showed an IC50 of 15 nM.

Molecule `CNS(=O)(=O)c1ccc(N2CCCC2)c(C(=O)N2CCN(c3ccc(C(F)(F)F)cc3)CC2)c1` [Example 129, N-Methyl-4-pyrrolidin-1-yl-3-[4-(4-trifluoromethyl-phenyl)-piperazine-1-carbonyl]-benzenesulfonamide] has an IC50 of 5 nM.

`CC(=O)c1ccc(N2CCN(C(=O)c3cc([N+](=O)[O-])ccc3NC3CCCC3)CC2)c(F)c1` [Example 21, 1-{4-[4-(2-Cyclopentylamino-5-nitro-benzoyl)-piperazin-1-yl]-3-fluoro-phenyl}-ethanone] was tested, and the IC50 was 2.3 nM.

For `CNS(=O)(=O)c1ccc(N2CCCC2)c(C(=O)N2CCN(c3ccc(C(F)(F)F)cc3F)CC2)c1` [Example 235, 3-[4-(2-Fluoro-4-trifluoro-methyl-phenyl)-piperazine-1-carbonyl]-N-methyl-4-pyrrolidin-1-yl-benzenesulfonamide], the IC50 was 6.5 nM.

`CC(=O)c1ccc(N2CCN(C(=O)c3cc([N+](=O)[O-])ccc3N3CCCCCC3)CC2)c(F)c1` [Example 28, 1-{4-[4-(2-Azepan-1-yl-5-nitro-benzoyl)-piperazin-1-yl]-3-fluoro-phenyl}-ethanone] was tested, and the IC50 was 3.3 nM.

`CC(=O)c1ccc(N2CCN(C(=O)c3cc([N+](=O)[O-])ccc3N3CC=CC3)CC2)c(F)c1` [Example 41, 1-(4-{4-[2-(2,5-Dihydro-pyrrol-1-yl)-5-nitro-benzoyl]-piperazin-1-yl}-3-fluoro-phenyl)-ethanone] was tested, and the IC50 was 14 nM.

`CC(=O)c1ccc(N2CCN(C(=O)c3cc([N+](=O)[O-])ccc3N3CCC(C)CC3)CC2)c(F)c1` [Example 36, 1-(3-Fluoro-4-{4-[2-(4-methyl-piperidin-1-yl)-5-nitro-benzoyl]-piperazin-1-yl}-phenyl)-ethanone] was tested, and the IC50 was 14 nM.

`CC(=O)c1ccc(N2CCN(C(=O)c3cc([N+](=O)[O-])ccc3NC3CCCCC3)CC2)c(F)c1` [Example 6, 1-{4-[4-(2-Cyclohexylamino-5-nitro-benzoyl)-piperazin-1-yl]-3-fluoro-phenyl}-ethanone] showed an IC50 of 10 nM.

In the case of `CNS(=O)(=O)c1ccc(N2CCOCC2)c(C(=O)N2CCN(c3ccc(C(F)(F)F)c(F)c3)CC2)c1` [Example 264, 3-[4-(3-Fluoro-4-trifluoro-methyl-phenyl)-piperazine-1-carbonyl]-N-methyl-4-morpholin-4-yl-benzenesulfonamide], the IC50 is reported as 12 nM.

`CS(=O)(=O)c1ccc(N2CCCCC2)c(C(=O)N2CCN(c3ccc(C(F)(F)F)c(F)c3)CC2)c1` [Example 220, [4-(3-Fluoro-4-trifluoromethyl-phenyl)piperazin-1-yl]-(5-methanesulfonyl-2-piperidin-1-yl-phenyl)-methanone] showed an IC50 of 19 nM.
